Measured values reported in paper PMC10175918 (Communications Biology, 2023).
Entries after “also recorded” stand apart in the source; their conditions may differ. Read-outs that look alike come from different tables or passages of the source.

Columns and labels:
Assay in all cases: TGFα-shedding assay-based GPCR screening with chimeric Gα subunit proteins
Type in all cases: cell-based
[1] = target: T1, 348 GPCRs (Homo sapiens, UniProt Q8IZ08); conditions: 10µM, Favipiravir 100μM
T1 construct: expressed in transfected cells; host or cells: HEK293A
T1 sequence (Q8IZ08 whole entry): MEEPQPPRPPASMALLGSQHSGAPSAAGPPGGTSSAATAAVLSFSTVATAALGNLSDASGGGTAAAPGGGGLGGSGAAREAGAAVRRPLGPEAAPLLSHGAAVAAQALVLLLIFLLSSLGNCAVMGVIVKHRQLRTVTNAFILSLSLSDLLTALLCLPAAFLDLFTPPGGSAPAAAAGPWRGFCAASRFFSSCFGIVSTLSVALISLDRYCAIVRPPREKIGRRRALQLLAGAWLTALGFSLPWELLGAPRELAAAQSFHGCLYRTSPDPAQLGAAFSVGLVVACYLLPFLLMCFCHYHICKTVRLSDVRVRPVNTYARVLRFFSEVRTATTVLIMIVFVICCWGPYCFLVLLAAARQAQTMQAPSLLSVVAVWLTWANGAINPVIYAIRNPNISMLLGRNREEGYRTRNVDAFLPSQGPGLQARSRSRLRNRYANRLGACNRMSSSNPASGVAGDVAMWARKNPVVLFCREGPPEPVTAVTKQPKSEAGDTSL

[2] = tested on: 348 GPCRs
[3] = target: T2, 348 GPCRs (Homo sapiens, UniProt P30968); conditions: 10µM, Favipiravir 100μM
T2 construct: expressed in transfected cells; host or cells: HEK293A
T2 sequence (P30968 1-328): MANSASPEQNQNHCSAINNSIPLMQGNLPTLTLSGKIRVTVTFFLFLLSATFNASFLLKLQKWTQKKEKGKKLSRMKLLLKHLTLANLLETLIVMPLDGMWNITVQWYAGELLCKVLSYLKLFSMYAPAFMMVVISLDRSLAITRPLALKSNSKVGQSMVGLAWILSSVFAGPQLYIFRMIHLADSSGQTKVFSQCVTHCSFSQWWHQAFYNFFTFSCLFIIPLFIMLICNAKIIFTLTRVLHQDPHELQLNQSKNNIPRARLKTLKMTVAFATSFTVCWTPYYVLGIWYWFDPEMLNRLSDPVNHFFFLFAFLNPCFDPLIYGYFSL

[4] = target: T3, 348 GPCRs (Homo sapiens, UniProt O43613); conditions: 10µM, Favipiravir 100μM
T3 construct: expressed in transfected cells; host or cells: HEK293A
T3 sequence (O43613 1-425): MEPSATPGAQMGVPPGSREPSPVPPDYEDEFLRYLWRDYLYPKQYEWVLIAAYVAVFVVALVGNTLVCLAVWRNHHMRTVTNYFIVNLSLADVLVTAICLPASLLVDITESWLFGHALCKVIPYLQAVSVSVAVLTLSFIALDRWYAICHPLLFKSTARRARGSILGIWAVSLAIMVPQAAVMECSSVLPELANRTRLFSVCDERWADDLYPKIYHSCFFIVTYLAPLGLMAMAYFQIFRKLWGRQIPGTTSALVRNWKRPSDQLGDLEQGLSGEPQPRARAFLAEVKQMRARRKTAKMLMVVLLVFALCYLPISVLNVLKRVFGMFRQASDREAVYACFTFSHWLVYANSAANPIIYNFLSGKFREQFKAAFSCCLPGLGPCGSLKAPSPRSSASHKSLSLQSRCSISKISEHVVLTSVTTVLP

[5] = target: T4, 348 GPCRs (Homo sapiens, UniProt Q6U736); conditions: 10µM, Favipiravir 100μM
T4 construct: expressed in transfected cells; host or cells: HEK293A
T4 sequence (Q6U736 whole entry): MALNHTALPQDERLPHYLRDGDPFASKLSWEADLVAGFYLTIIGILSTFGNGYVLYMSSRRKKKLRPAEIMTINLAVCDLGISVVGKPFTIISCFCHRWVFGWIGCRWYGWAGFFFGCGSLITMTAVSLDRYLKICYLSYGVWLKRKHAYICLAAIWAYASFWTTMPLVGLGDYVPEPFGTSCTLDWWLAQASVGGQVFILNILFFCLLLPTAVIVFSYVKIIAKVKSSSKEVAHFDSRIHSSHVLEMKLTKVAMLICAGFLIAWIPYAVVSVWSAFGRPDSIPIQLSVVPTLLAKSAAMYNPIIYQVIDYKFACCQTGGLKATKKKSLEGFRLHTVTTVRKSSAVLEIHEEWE

[6] = target: T5, 348 GPCRs (Homo sapiens, UniProt P32241)
T5 construct: expressed in transfected cells; host or cells: HEK293A
T5 sequence (P32241 31-457): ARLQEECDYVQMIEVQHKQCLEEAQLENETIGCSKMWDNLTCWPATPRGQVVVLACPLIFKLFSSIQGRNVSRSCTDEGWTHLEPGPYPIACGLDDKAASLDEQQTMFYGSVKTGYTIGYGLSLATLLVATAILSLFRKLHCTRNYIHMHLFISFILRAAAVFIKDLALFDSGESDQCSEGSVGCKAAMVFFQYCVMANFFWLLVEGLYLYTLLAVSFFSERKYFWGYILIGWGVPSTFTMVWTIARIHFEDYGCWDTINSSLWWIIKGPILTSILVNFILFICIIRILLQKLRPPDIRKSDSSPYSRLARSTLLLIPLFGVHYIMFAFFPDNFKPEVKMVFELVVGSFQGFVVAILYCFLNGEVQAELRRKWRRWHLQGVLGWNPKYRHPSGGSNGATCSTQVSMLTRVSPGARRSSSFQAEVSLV

[7] = target: T6, 348 GPCRs (Homo sapiens, UniProt P41594); conditions: 10µM, Favipiravir 100μM
T6 construct: expressed in transfected cells; host or cells: HEK293A
T6 sequence (P41594 21-1212): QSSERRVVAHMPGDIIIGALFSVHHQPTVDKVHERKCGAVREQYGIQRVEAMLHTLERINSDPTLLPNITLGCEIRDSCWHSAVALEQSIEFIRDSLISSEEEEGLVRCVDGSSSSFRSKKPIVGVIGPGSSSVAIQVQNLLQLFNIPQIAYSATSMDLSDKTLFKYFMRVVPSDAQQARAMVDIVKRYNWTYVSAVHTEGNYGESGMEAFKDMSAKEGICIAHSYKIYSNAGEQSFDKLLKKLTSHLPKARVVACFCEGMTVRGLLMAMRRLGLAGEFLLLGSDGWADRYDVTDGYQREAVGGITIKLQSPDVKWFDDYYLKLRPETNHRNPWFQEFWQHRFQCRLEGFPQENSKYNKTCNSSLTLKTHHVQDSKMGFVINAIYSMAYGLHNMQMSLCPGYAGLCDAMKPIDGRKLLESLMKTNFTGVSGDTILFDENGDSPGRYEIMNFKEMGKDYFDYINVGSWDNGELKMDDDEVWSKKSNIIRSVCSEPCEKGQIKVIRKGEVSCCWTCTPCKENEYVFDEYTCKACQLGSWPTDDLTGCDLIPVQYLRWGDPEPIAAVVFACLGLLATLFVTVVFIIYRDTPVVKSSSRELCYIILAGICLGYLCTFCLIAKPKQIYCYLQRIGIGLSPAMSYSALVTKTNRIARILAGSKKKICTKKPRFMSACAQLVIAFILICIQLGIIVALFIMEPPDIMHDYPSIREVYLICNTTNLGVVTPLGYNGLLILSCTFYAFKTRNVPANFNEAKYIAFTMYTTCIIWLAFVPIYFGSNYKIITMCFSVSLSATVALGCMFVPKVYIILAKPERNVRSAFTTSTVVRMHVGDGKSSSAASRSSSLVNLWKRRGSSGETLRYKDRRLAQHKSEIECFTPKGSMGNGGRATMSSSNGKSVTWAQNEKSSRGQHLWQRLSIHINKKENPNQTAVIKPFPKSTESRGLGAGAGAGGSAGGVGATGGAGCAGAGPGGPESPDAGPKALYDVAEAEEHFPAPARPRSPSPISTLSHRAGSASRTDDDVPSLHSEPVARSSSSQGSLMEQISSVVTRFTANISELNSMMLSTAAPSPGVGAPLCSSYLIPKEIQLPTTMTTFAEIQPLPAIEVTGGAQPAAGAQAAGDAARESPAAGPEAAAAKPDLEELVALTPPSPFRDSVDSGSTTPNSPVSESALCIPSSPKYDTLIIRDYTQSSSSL

[8] = target: T7, 348 GPCRs (Homo sapiens, UniProt Q8IZF4)
T7 construct: expressed in transfected cells; host or cells: HEK293A
T7 sequence (Q8IZF4 22-528): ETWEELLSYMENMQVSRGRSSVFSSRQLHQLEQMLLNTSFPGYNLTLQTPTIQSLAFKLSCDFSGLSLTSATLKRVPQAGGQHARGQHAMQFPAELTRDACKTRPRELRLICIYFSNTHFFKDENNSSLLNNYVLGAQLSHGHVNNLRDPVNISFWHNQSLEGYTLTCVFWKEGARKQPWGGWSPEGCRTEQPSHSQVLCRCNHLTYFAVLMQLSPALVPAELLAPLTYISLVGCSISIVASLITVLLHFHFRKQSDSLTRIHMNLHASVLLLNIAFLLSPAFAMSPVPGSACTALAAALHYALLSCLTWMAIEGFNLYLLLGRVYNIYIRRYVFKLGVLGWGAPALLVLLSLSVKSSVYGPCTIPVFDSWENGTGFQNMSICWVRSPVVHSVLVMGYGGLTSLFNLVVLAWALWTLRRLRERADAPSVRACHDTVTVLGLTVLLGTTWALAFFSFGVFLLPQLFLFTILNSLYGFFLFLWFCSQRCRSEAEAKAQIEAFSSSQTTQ

[9] = target: T8, 348 GPCRs (Homo sapiens, UniProt Q9BXC0); conditions: 10µM, Favipiravir 100μM
T8 construct: expressed in transfected cells; host or cells: HEK293A
T8 sequence (Q9BXC0 whole entry): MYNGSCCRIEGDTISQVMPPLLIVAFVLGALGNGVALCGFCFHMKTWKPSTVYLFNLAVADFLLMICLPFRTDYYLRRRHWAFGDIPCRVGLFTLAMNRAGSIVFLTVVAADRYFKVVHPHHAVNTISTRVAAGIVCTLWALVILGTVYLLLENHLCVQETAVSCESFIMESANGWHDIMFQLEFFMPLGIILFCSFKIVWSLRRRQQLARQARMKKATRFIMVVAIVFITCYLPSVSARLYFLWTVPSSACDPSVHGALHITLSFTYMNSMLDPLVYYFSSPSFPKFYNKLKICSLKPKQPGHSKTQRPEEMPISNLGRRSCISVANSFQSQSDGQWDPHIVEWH

[10] = target: 348 GPCRs (Homo sapiens, UniProt Q8TDS4)
Chain of 348 GPCRs (Homo sapiens, UniProt Q8TDS4) (Q8TDS4 whole entry): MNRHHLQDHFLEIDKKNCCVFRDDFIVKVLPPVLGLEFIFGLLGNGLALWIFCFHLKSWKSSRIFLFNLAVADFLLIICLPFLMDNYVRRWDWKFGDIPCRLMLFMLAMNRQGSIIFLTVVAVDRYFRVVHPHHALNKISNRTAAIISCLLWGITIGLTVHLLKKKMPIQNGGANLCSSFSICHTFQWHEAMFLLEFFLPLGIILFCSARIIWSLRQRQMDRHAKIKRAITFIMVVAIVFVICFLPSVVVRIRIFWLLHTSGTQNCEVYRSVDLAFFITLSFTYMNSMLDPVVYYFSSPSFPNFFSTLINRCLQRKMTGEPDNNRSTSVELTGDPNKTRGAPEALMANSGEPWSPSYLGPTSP

[11] = GPR135 (G Protein-Coupled Receptor 135), read-out: % GPCR activation compared to TPA
[12] = EP3 iso6 (prostaglandin E receptor 3 iso6), 10µM, Favipiravir 100μM
[13] = GPCR GPR68 long (G protein-coupled receptor 68 long), 10µM
[14] = GPCR LTB4R2B (leukotriene B4 receptor 2), 10µM
[15] = GPCR P2Y13 short (purinergic receptor P2Y, G-protein coupled, 13 short), 10µM
[16] = GPR17 short (G protein-coupled receptor 17 short), 10µM, Favipiravir 100μM
[17] = GNRHR (gonadotropin releasing hormone receptor), read-out: % GPCR activation compared to TPA
[18] = HCRTR1 (hypocretin (orexin) receptor 1), read-out: % GPCR activation compared to TPA
[19] = OPN5 (opsin 5), read-out: % GPCR activation compared to TPA
[20] = GPCR VIPR1 (vasoactive intestinal peptide receptor 1), read-out: % GPCR activation compared to TPA
[21] = GRM5 (glutamate receptor, metabotropic 5), read-out: % GPCR activation compared to TPA
[22] = GPCR GPR114 (G-protein-coupled receptor 114 (ADGRG5)), read-out: % GPCR activation compared to TPA
[23] = GPR81 (hydroxycarboxylic acid receptor 1), read-out: % GPCR activation compared to TPA
[24] = HCA2, GPCR GPR109A (hydroxycarboxylic acid receptor 2 (HCA2)), read-out: % GPCR activation compared to TPA
[25] = read-out: % GPCR activation compared to TPA, GPR135 (G Protein-Coupled Receptor 135)
[26] = read-out: % GPCR activation compared to TPA, GNRHR (gonadotropin releasing hormone receptor)
[27] = read-out: % GPCR activation compared to TPA, HCRTR1 (hypocretin (orexin) receptor 1)
[28] = read-out: % GPCR activation compared to TPA, OPN5 (opsin 5)
[29] = read-out: % GPCR activation compared to TPA, GPCR VIPR1 (vasoactive intestinal peptide receptor 1)
[30] = read-out: % GPCR activation compared to TPA, GRM5 (glutamate receptor, metabotropic 5)
[31] = read-out: % GPCR activation compared to TPA, GPCR GPR114 (G-protein-coupled receptor 114 (ADGRG5))
[32] = read-out: % GPCR activation compared to TPA, GPR81 (hydroxycarboxylic acid receptor 1)
[33] = HCA2, read-out: % GPCR activation compared to TPA, GPCR GPR109A (hydroxycarboxylic acid receptor 2 (HCA2))

| activation at 100 µM [1, 11] | activation at 10 µM [3, 17] | activation at 100 µM [4, 18] | activation at 100 µM [5, 19] | activation at 10 µM [6, 20] | activation at 10 µM [7, 21] | activation at 10 µM [8, 22] | activation at 100 µM [9, 23] | activation at 10 µM [10, 24] | SMILES | % GPCR activation compared to TPA [2, 12] | % GPCR activation compared to TPA [2, 13] | % GPCR activation compared to TPA [2, 14] | % GPCR activation compared to TPA [2, 15] | % GPCR activation compared to TPA [2, 16] | activation at 100 µM [1, 25] | activation at 10 µM [3, 26] | activation at 100 µM [4, 27] | activation at 100 µM [5, 28] | activation at 10 µM [6, 29] | activation at 10 µM [7, 30] | other results |
| --- | --- | --- | --- | --- | --- | --- | --- | --- | --- | --- | --- | --- | --- | --- | --- | --- | --- | --- | --- | --- | --- |
| -1.68% | -3.48% | 16.9% | -1.77% | -2.1% | 1.65% | -2.76% | 1.05% | 0.689% | N#C[C@@]1(c2ccc3c(N)ncnn23)O[C@H](CO)[C@@H](O)[C@H]1O [GS441524] | -0.4587% | 3.274% | -0.1822% | 0.9471% | 2.36% |  |  |  |  |  |  |  |
| -0.994% | -1.3% | 12.9% | -1.8% |  | 0.818% |  | 0.102% |  | NC(=O)c1nc(F)cnc1O [favipiravir, 6-fluoro-3-hydroxy-2-pyrazinecarboxamide] | 0.2801% |  |  |  | -0.5013% |  |  |  |  |  |  | % GPCR activation compared to TPA ([2]; GPCR GPR68 long (G protein-coupled receptor 68 long), 100μM): 5.02%; % GPCR activation compared to TPA ([2]; GPCR LTB4R2B (leukotriene B4 receptor 2), 100μM): -0.02753%; % GPCR activation compared to TPA ([2]; GPCR P2Y13 short (purinergic receptor P2Y, G-protein coupled, 13 short), 100μM): 1.698%; activation at 100 µM ([6]; GPCR VIPR1 (vasoactive intestinal peptide receptor 1), 100μM, read-out: % GPCR activation compared to TPA): -0.983%; activation at 100 µM ([8]; GPCR GPR114 (G-protein-coupled receptor 114 (ADGRG5)), 100μM, read-out: % GPCR activation compared to TPA): -2.55%; activation at 100 µM ([10]; HCA2, GPCR GPR109A (hydroxycarboxylic acid receptor 2 (HCA2)), 100μM, read-out: % GPCR activation compared to TPA): 1.41% |
| -1.53% | -1.32% | 1.7% | -2.56% | -0.522% | 0.891% | -2.86% | 0.933% | -37.5% | CC(C)C(=O)OC[C@H]1O[C@@H](n2ccc(NO)nc2=O)[C@H](O)[C@@H]1O [molnupiravir] | -0.792% | -159.537% | -0.2056% | -3.484% | 0.1735% |  |  |  |  |  |  |  |
|  |  |  |  |  |  |  |  |  | CCC(CC)COC(=O)[C@H](C)N[P@](=O)(OC[C@H]1O[C@@](C#N)(c2ccc3c(N)ncnn23)[C@H](O)[C@@H]1O)Oc1ccccc1 [remdesivir] | 1.469% | -2.927% | -0.9744% | 2.55% | 2.96% | -2.35% | -0.876% | 16.7% | -2.25% | -1.85% | 2.34% | GPCR activation in screening against 348 GPCRs ([2]; 10 μM remdesivir, molnupiravir, 100 μM favipiravir, chimeric Gα): selectively activate UTS2R; also recorded: selective activator for the urotensin-II receptor (UTS2R); effect on adenosine receptors ([2]; GPCR assay, adenosine receptors): no effect on adenosine receptors; activation at 10 µM [8, 31]: -1.51%; activation at 100 µM [9, 32]: 2.29%; activation at 10 µM [10, 33]: 2.36% |
|  |  |  |  |  |  |  |  |  | CC(C)OC(=O)[C@H](C)N[P@](=O)(OC[C@H]1O[C@@H](n2ccc(=O)[nH]c2=O)[C@](C)(F)[C@@H]1O)Oc1ccccc1 [sofosbuvir] | -2.666% | -162.099% | 1.863% | -2.679% | 1.814% | -2.6% | -0.976% | -0.162% | -0.631% | 0.0833% | 3.55% | activation at 10 µM [8, 31]: 0.492%; activation at 100 µM [9, 32]: -7.92%; activation at 10 µM [10, 33]: -29.6% |
